Assays:
[1] = system: oxaliplatin-induced peripheral neuropathy model mice; test: Oxaliplatin-induced mouse neuropathic pain model (Example 7): mechanical allodynia, Uralyt and sodium bicarbonate; assay type: in vivo, male C57BL/6J mice; conditions: 0.75 g/kg sodium bicarbonate oral twice per day for 13 days; OXP 3 mg/kg i.p. single dose; FIG. 14: day 10
Description: (§1) For the alkalinizing agent, the same test substance as Example 1 and sodium bicarbonate (in this description also referred to as baking soda, manufactured by Tokyo Chemical Industry Co., Ltd., purity: at least 99.0%) were used. Following weighing of the required amount of the sodium bicarbonate, sufficient injection water was added to dissolve the sodium bicarbonate and prepare a solution of the target concentration at the time of use.
(§2) In the Sham group and the control group, the injection water used as the solvent for the alkalinizing agent was used.
(§3) The same type of animals as Example 1 were used. Specifically, six-week old male C57BL/6J mice (from Japan SLC, Inc.) were used. The animals were provided with an approximately one-week acclimatization period, and only healthy individuals were then selected for testing. […]
(§4) Grouping was conducted using the pain-related scores evaluated on the day prior to starting the test (the day prior to test substance administration) as a reference, and specifically, by dividing the individuals into each of the groups to ensure the same averaged pain-related score for each group. […]
Following the OXP administration, the level of pain was evaluated over time. […] A pain evaluation was also conducted on a day prior to the start of alkalinizing agent administration, and this evaluation was recorded as the Pre value. […]

[2] = system: paclitaxel-induced peripheral neuropathy model mice; test: Paclitaxel-induced mouse neuropathic pain model (Example 8): mechanical allodynia, Uralyt and sodium bicarbonate; assay type: in vivo, male C57BL/6J mice; conditions: 0.75 g/kg sodium bicarbonate oral twice per day for 17 days; PTX 5 mg/kg i.p. single dose; FIG. 16: day 14
Description: as §1, §2, §3, §4
Following the PTX administration, the level of pain was evaluated over time. […] A pain evaluation was also conducted on a day prior to the start of alkalinizing agent administration, and this evaluation was recorded as the Pre value. […]

## O=C([O-])O.[Na+] [sodium bicarbonate]
[1]
  onset of mechanical allodynia (pain-related score): suppressed the onset of mechanical allodynia, but the effect was smaller than that observed for the Uralyt administration group
[2]
  onset of mechanical allodynia (pain-related score): suppressed the onset of mechanical allodynia, but the effect was smaller than that observed for the Uralyt administration group

— US20260224516A1, “PHARMACEUTICAL FOR TREATING OR PREVENTING CHEMOTHERAPY-INDUCED PERIPHERAL NEUROPATHY” (NIPPON CHEMIPHAR CO., LTD., priority 2023, published 2026)
